In brackets after ≈: the same amount, converted by molar mass. Where two headings read alike, the source gives them in different places.
What was measured:
Southern Corn Rootworm = experiment: Mite/insect screen: Southern Corn Rootworm (SCRW); assay type: in vivo, Diabrotica undecimpunctata howardi; conditions: 264 h, 11 day
Protocol: (§1) The formula 1A compounds were tested for miticidal and insecticidal activity in the following mite/insect screen. Each test compound was formulated by dissolving the compound in an acetone-alcohol (1:1) mixture containing 23 g of TOXIMUL R (sulfonate/nonionic emulsifier blend) and 13 g of TOXIMUL S (sulfonate/nonionic emulsifier blend) per liter. These mixtures were then diluted with water to give the indicated concentrations.
(§2) Two-spotted spider mites and cotton aphids were introduced on squash cotyledons and allowed to establish on both leaf surfaces. The leaves were then sprayed with 5 ml of test solutions using a DeVilbiss atomizing sprayer at 10 psi. Both surfaces of the leaves were covered until run off and then allowed to dry for one hour. After standard exposure periods percent mortality was evaluated. Additional insects were evaluated using similar formulations and evaluation procedures.

German Cockroach = experiment: Mite/insect screen: German Cockroach (GECR); assay type: in vivo; conditions: Blattella germanica
Protocol: as §1, §2

Rootknot Nematode = experiment: Mite/insect screen: Rootknot Nematode (NEM); assay type: in vivo, Meliiodyne spp.; conditions: 264 h, 11 day
Protocol: as §1, §2

Aster Leafhopper = experiment: Mite/insect screen: Aster Leafhopper (ALH); assay type: in vivo; conditions: Macrosteles fascifrons, 24 hr
Protocol: as §1, §2

Adult Stablefly = experiment: In vitro activity against adult stable fly; assay type: in vivo; conditions: Stomoxys calcitrans
Excerpt: (§3) The formula 1A compounds are also active against members of the insect order Diptera. Tables VIII and IX summarize the in vitro studies of the formula 1A compounds against blowfly larvae and adult stable fly.

Cotton Aphid = experiment: Mite/insect screen: Cotton Aphid (CA); assay type: in vivo, Aphis gossypii Glover; conditions: Aphis gossypii, 4-5 day
Protocol: as §1, §2

Neonate Tobacco Budworm = experiment: LD50 against neonate tobacco budworm (petri dish assay); assay type: in vivo; conditions: Heliothis virescens; neonate larvae; mortality evaluated at 24 and 48 hours; mean of two tests
Protocol: The formula 1A compounds were evaluated in the following assay to determine the LD50 against neonate tobacco budworm (Heliothis virescens). A petri dish (100 mm×20 mm) is inverted and the lid lined with a #1 qualitative filter paper. Ten neonate larvae are placed in each dish and a 1 ml test solution is pipetted onto the insects. The petri dish bottom is then placed on the lid to contain the larvae. At 1 hr. after treatment, a small piece of Heliothis diet (modified shurry, Southland Products, Lake Village, AR) is added to each dish. The mortality is evaluated at 24 and 48 hours. Each test is run in triplicate.

Beet Armyworm = experiment: Mite/insect screen: Beet Armyworm (BAW); assay type: in vivo, Spodoptera exiqua; conditions: Spodoptera exigua, 144 h, 6 day
Protocol: as §1, §2

Two-spotted Spider Mite = experiment: Mite/insect screen: Two-spotted Spider Mite (TSSM); assay type: in vivo; conditions: Tetranychus urticae, 4-5 day
Protocol: as §1, §2

Tobacco Budworm = experiment: Mite/insect screen: Tobacco Budworm (TBW); assay type: in vivo; conditions: Heliothis virescens, 144 h, 6 day
Protocol: as §1, §2

Blowfly Larvae = experiment: In vitro activity against blowfly larvae; assay type: in vivo; conditions: 5 ppm
Excerpt: as §3

[1] = 24 hr, read-out: % mortality 24 hr
[2] = 48 hr, read-out: % mortality 48 hr

Row | SMILES | inhibition at 200 ppm (Southern Corn Rootworm) | inhibition at 400 ppm (Southern Corn Rootworm) | inhibition at 200 ppm (German Cockroach; 168 h, 7 day) | inhibition at 400 ppm (German Cockroach; 168 h, 7 day) | inhibition at 200 ppm (German Cockroach; 504 h, 21 day) | inhibition at 400 ppm (German Cockroach; 504 h, 21 day) | inhibition at 200 ppm (Rootknot Nematode) | inhibition at 400 ppm (Rootknot Nematode) | inhibition at 200 ppm (Aster Leafhopper) | inhibition at 400 ppm (Aster Leafhopper) | mortality at 5 ppm (Adult Stablefly; [1]) | mortality at 5 ppm (Adult Stablefly; [2]) | inhibition at 200 ppm (Cotton Aphid) | inhibition at 400 ppm (Cotton Aphid) | LC50 (Neonate Tobacco Budworm) | inhibition at 200 ppm (Beet Armyworm) | inhibition at 400 ppm (Beet Armyworm) | inhibition at 200 ppm (Two-spotted Spider Mite) | inhibition at 400 ppm (Two-spotted Spider Mite) | inhibition at 200 ppm (Tobacco Budworm) | other results
1 | CCC1CCCC(OC2CCC(NC)C(C)O2)C(C)C(=O)C2=CC3C(C=C(C)C4CC(OC5OC(C)C(OC)C(O)C5OC)CC43)C2CC(=O)O1 (stereo not shown) [Compound A83543N] | 0% | 0% | 0% | 0% | 0% | 0% | 0% | 0% | 100% | 100% | 20% | 90% | 0% | 0% | 40 µg/mL (≈ 55.7 µM) | 90% | 100% | 0% | 0% | 100% | inhibition at 400 ppm (Tobacco Budworm): 100%
2 | CCC1CCCC(OC2CCC(NC)C(C)O2)C(C)C(=O)C2=CC3C(C=CC4CC(OC5OC(C)C(OC)C(O)C5OC)CC43)C2CC(=O)O1 (stereo not shown) [Compound A83543M] | 0% | 0% | 0% | 0% | 20% | 40% | 0% | 0% | 60% | 100% | 60% | 100% | 0% | 0% | 22.6 µg/mL (≈ 32.1 µM) | 0% | 0% | 0% | 0% | 70% | inhibition at 400 ppm (Tobacco Budworm): 100%
3 | CCC1CCCC(OC2CCC(N(C)C)C(C)O2)C(C)C(=O)C2=CC3C(C=C(C)C4CC(OC5OC(C)C(OC)C(O)C5OC)CC43)C2CC(=O)O1 (stereo not shown) [Compound A83543L] | 0% | 0% | 40% | 0% | 100% | 100% | 0% | 0% | 100% | 100% | 70% | 100% | 0% | 0% | 26 µg/mL (≈ 35.5 µM) | 100% | 100% | 0% | 0% | 100% | % mortality (Blowfly Larvae): 90%; inhibition at 400 ppm (Tobacco Budworm): 100%

From patent US5202242A, “A83543 compounds and processes for production thereof” (DowElanco, priority 1991, dated 1993)
